The target of test [1] is T1, Cannabinoid receptor 1 (Homo sapiens, UniProt P21554). Kind of test: Agonist activity at human CB1 receptor expressed in mouse AtT-20 cells co expressing GIRK by FLIPR assay. The format is cell-based.
For test [2], the species on record is Homo sapiens. Kind of test: Selectivity index, ratio of EC50 for human CB1 receptor to Ki for human CB2 receptor.
Test [3] has as its target T2, Cannabinoid receptor 2 (Homo sapiens, UniProt P34972). Kind of test: Inhibition of CB2 receptor (unknown origin).
Test [4] deals with T2, Cannabinoid receptor 2. Kind of test: Agonist activity at human CB2 receptor expressed in mouse AtT-20 cells co expressing GIRK by FLIPR assay. In kind it is cell-based.
For test [5], the species on record is Homo sapiens. The test is described as follows: Selectivity index, ratio of Ki for CB1 receptor (unknown origin) to Ki for CB2 receptor (unknown origin).
Test [6] concerns the target T1, Cannabinoid receptor 1. Kind of test: Binding affinity to CB1 receptor (unknown origin).
Test [7] addresses T2, Cannabinoid receptor 2. The test is described as follows: Activity at CB2 receptor (unknown origin).
For test [8], the target named is T2, Cannabinoid receptor 2. The test is described as follows: Binding affinity to CB2 receptor (unknown origin).

Structures are written as SMILES.

T1 sequence (P21554 whole entry): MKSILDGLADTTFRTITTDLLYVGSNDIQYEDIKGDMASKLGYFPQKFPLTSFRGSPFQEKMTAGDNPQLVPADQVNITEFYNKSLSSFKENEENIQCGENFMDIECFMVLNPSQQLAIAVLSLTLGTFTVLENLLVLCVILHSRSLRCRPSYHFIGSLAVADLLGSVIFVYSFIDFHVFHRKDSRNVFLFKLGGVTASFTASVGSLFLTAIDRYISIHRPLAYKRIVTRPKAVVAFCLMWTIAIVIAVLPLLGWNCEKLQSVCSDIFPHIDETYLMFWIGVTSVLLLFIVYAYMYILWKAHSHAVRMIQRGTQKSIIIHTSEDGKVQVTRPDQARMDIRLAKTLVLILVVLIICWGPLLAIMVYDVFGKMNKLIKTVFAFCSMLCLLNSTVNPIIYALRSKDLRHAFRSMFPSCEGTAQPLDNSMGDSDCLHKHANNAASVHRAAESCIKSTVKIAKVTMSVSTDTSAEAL
T2 sequence (P34972 whole entry): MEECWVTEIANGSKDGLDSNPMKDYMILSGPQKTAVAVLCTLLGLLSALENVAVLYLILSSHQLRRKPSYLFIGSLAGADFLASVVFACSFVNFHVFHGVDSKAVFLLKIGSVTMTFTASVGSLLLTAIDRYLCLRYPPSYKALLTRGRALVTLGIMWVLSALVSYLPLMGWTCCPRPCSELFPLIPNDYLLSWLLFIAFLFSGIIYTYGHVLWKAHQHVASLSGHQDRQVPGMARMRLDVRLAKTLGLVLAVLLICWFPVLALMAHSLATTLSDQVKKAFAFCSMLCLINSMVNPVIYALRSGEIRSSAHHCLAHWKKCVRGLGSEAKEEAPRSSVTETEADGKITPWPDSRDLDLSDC

As a reminder, the EC50 is the concentration that produces a half-maximal response. Lower therefore signals a more potent agent. On Cannabinoid receptor 1 [1], `CC(C)[C@H](NC(=O)c1nn(CCCCCF)c2ccccc12)C(N)=O` registered an EC50 of 2.1 to 7.8 nM. In addition, the Ratio EC50 in the test listed under Homo sapiens [2] lay within 1.5 to 3.2.

By IC50 is commonly meant the concentration at which inhibition is half-maximal. Read a low IC50 as higher potency. For the compound `[2H]C([2H])([18F])Oc1nc(NCCc2ccc(F)cc2)nc(-c2ccc(Cl)c(C(C)(C)O)c2)n1`, the IC50 at Cannabinoid receptor 2 [3] stood at 1.4 nM.

`CCCCCn1nc(C(=O)N[C@H](C(N)=O)C(C)C)c2ccccc21`: on Cannabinoid receptor 1 [1], the EC50 lay in the range of 2.1 to 7.8 nM. The Ratio EC50 in the test filed under Homo sapiens [2] lay within 1.5 to 3.2.

Turning to `CCCCn1cc(C(=O)c2ccccc2OC)c2ccccc21`, the EC50 stood at 178 nM on Cannabinoid receptor 1 [1] and 4.5 nM at Cannabinoid receptor 2 [4]. The Selectivity Index in the test filed under Homo sapiens [2] is 39.6.

In turn, `CC(C)[C@H](NC(=O)c1nn(CC2CCCCC2)c2ccccc12)C(N)=O` displayed an EC50 on Cannabinoid receptor 1 [1] of 2.1 to 7.8 nM. In the test listed under Homo sapiens [2], the Ratio EC50 is 1.5 to 3.2.

In the case of `CC(C)[C@H](NC(=O)c1nn(Cc2ccc(F)cc2)c2ccccc12)C(N)=O`, the EC50 at Cannabinoid receptor 1 [1] lay within 2.1 to 7.8 nM.

Turning to `COc1cccc2c(=O)c(C(=O)NC34CC5CC(CC(C5)C3)C4)cn(CCOCCF)c12`, the Ratio Ki in the test filed under Homo sapiens [5] (tested as the 18F-labelled form) was over 8330.

By Ki is commonly meant the dissociation constant of the complex between target and ligand, obtained from inhibition or displacement. Lower therefore signals tighter binding. In the case of `CCOCCn1cc(C(=O)NC23CC4CC(CC(C4)C2)C3)c(=O)c2cccc(O[11CH3])c21`, the Ki at Cannabinoid receptor 1 [6] was over 10 µM.

Take `CCOc1nc(NC2CCCC2)nc(N2CCN(CC[18F])CC2)n1`: it took 40 nM to reach a half-maximal effect at Cannabinoid receptor 2 [7] (EC50).

As to `CCCc1sc(NC(=O)C23CC4CC(CC(C4)C2)C3)c(C(=O)O[11CH3])c1C`, the Ki at Cannabinoid receptor 1 [6] was 1.1 µM; at Cannabinoid receptor 2 [8] it was 4.3 nM.

For the compound `CCCCCn1cc(C(=O)c2ccccc2OC)c2ccccc21`, the EC50 at Cannabinoid receptor 1 [1] turned out to be 54 nM; on Cannabinoid receptor 2 [4], 6.9 nM. In addition, the Selectivity Index in the test filed under Homo sapiens [2] is 7.8.

On to `CCCc1sc(NC(=O)C23CC4CC(CC(C4)C2)C3)c(C(=O)OC)c1C`, for which the Ratio Ki in the test filed under Homo sapiens [5] (tested as the 11C-labelled form) turned out to be 256.

`COc1cccc2c(=O)c(C(=O)NC34CC5CC(CC(C5)C3)C4)cn(CCOCC[18F])c12`: the Ki was over 10 µM at Cannabinoid receptor 1 [6] and 1.2 nM at Cannabinoid receptor 2 [8].

Source of the values: ChEMBL document CHEMBL4028847, “Perspectives of Cannabinoid Type 2 Receptor (CB2R) Ligands in Neurodegenerative Disorders: Structure-Affinity Relationship (SAfiR) and Structure-Activity Relationship (SAR) Studies” (J Med Chem, 2017).
